Laboratory results: US5498628A, “Naphthamide derivatives” (Institut National de la Sante et de la Recherche Medicale, priority 1991, dated 1996)
Structures can show the parent of a compound that is named as a salt.

What was measured:
[1] = target: HUMAN D3 DOPAMINERGIC RECEPTOR (Homo sapiens, UniProt P35462); test: biochemical; settings: read-out: Ki VALUE (inhibition constant for binding of [^125 I]iodosulpiride)
Protocol: The inhibition constants for the binding of [^125 I]iodosulpiride to the D3 receptor were measured as described in the French Patent Application filed by INSERM on 6th Nov. 1990 under No. 90/13731.

dopamine receptors [2] = test: Antagonism of apomorphine-induced stereotyped sniffing in mice (dopamine receptor blockade in vivo); settings: Mus musculus, ip, read-out: ID50 for the antagonism of sniffing
Protocol: (§1) The capacity to bring about a blockade of the dopamine receptors in vivo was evaluated for some of the compounds according to the invention. The tests used were the antagonism of stereotyped sniffing and rearing induced by apomorphine in mice. These tests have been described by Protais et al. (Psychopharmacology, 1976, 50:1-6) and by Vasse et al. (Naunyn Schmiedeberg's Arch. Pharmacol., 1985, 329:108-116).

dopamine receptors [3] = test: Antagonism of apomorphine-induced rearing in mice (dopamine receptor blockade in vivo); settings: i.p.
Protocol: as §1

UniProt P35462, sequence (P35462 whole entry): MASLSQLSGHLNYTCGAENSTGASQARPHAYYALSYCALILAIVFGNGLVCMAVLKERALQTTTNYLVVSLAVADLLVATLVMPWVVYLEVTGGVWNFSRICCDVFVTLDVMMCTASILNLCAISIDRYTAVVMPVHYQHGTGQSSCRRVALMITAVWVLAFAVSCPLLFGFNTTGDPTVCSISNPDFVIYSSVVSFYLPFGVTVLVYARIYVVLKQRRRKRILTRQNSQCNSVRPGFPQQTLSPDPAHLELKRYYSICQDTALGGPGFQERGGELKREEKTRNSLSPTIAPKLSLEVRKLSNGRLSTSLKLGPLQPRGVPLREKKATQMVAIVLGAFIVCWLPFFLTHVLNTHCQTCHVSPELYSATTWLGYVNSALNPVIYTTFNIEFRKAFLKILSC

| SMILES | Ki [1] [nM] | other results |
| --- | --- | --- |
| C=CCN1CCCC1CNC(=O)c1cc([N+](=O)[O-])c2ccccc2c1OC (stereo not drawn) [Example 17] | 0.35 | – |
| CCCCN1CCCC1CNC(=O)c1cc(Br)c2ccccc2c1OC (stereo not drawn) [Example 1, N-[(N-1-butyl-2-pyrrolidinyl)methyl]-1-methoxy-4-bromo-2-naphthamide hydrochloride] | 0.24 | – |
| COc1c(C(=O)NCC2CCCN2Cc2ccccc2)ccc2ccccc12 (stereo not drawn) [Example 11, N-[(N-Benzyl-2-pyrrolidinyl)methyl]-1-methoxy-2-naphthamide hydrochloride] | 91 | – |
| CCN1CCCC1CNC(=O)c1cc([N+](=O)[O-])c2ccccc2c1OC (stereo not drawn) [Example 6, 4-Nitro-N-[(N-ethyl-2-pyrrolidinyl)methyl]-1-methoxy-2-naphthamide] | 0.3 | – |
| C=CCN1CCCC1CNC(=O)c1cc(C#N)c2ccccc2c1OC (stereo not drawn) [Example 2, N-[(N-allyl-2-pyrrolidinyl)methyl]-1-methoxy-4-cyano-2-naphthamide] | 0.51 | – |
| COc1c(C(=O)NCC2CCCN2Cc2ccccc2)cc(Cl)c2ccccc12 (stereo not drawn) [Example 13, 4-Chloro-N-[(N-benzyl-2-pyrrolidinyl)methyl]-1-methoxy-2-naphthamide] | 4.7 | – |
| CCN1CCCC1CNC(=O)c1ccc2ccccc2c1OC (stereo not drawn) [Example 4, N-[(N-Ethyl-2-pyrrolidinyl)methyl]-1-methoxy-2-naphthamide] | 35 | – |
| COc1c(C(=O)NCC2CCCN2Cc2ccccc2)cc([N+](=O)[O-])c2ccccc12 (stereo not drawn) [Example 12, 4-Nitro-N-[(N-benzyl-2-pyrrolidinyl)methyl]-1-methoxy-2-naphthamide] | 1.7 | – |
| CCN1CCCC1CNC(=O)c1cc(Cl)c2ccccc2c1OC (stereo not drawn) [Example 8, 4-Chloro-N-[(N-ethyl-2-pyrrolidinyl)methyl]-1-methoxy-2-naphthamide hydrochloride] | 0.26 | ED50 (dopamine receptors [2]): 0.42 mg/kg; ED50 (dopamine receptors [3]; Mus musculus, ip, apomorphine-induced rearing, read-out: ID50 for the antagonism of rearing): 0.16 mg/kg; crossing of the blood-brain barrier (dopamine receptors [3]; inferred from ID50 values for rearing and sniffing): readily crosses the blood-brain barrier |
